Reference: ChEMBL document CHEMBL1201862, “PubChem BioAssay data set” (2004)
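1) Cells in 96-well plates. 2) Compound, 48 h, 5 concentrations. 3) Linear interpolation between surrounding doses. 4) Unreached endpoint = highest concentration. GI50 = concentration required for 50% inhibition of growth.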 Active and inactive are the calls of the source. No stated cut-off is given here; in the data, active = GI50 up to about 1.1 µM and inactive = higher.

How the values were obtained:
Test in all cases: inhibition of tumour cell growth, NCI panel, 48 h
A498 = test system: A498
CCRF-CEM = test system: CCRF-CEM
EKVX = test system: EKVX
HCC 2998 = test system: HCC 2998
Hs-578T = test system: Hs-578T
KM12 = test system: KM12
M14 = test system: M14
MOLT-4 = test system: MOLT-4
NCI-H460 = test system: NCI-H460
NCI/ADR-RES = test system: NCI/ADR-RES
OVCAR-4 = test system: OVCAR-4
RXF 393 = test system: RXF 393
SK-MEL-28 = test system: SK-MEL-28
SK-MEL-2 = test system: SK-MEL-2
SK-MEL-5 = test system: SK-MEL-5
T47D = test system: T47D
U-251 = test system: U-251
UACC-62 = test system: UACC-62
SK-OV-3 = test system: SK-OV-3
MDA-N = test system: MDA-N

| Structure (SMILES) | GI50 (A498) | GI50 (CCRF-CEM) | GI50 (EKVX) | GI50 (HCC 2998) | GI50 (Hs-578T) | GI50 (KM12) | GI50 (M14) | GI50 (MOLT-4) | GI50 (NCI-H460) | GI50 (NCI/ADR-RES) | GI50 (OVCAR-4) | GI50 (RXF 393) | GI50 (SK-MEL-28) | GI50 (SK-MEL-2) | GI50 (SK-MEL-5) | GI50 (T47D) | GI50 (U-251) | GI50 (UACC-62) | GI50 (SK-OV-3) | GI50 (MDA-N) |
| --- | --- | --- | --- | --- | --- | --- | --- | --- | --- | --- | --- | --- | --- | --- | --- | --- | --- | --- | --- | --- |
| COc1cc2c3c(c1OC)C(=O)C(=O)C1=C3N(CCC1)CC2 | 30.3 µM (inactive) | 20.3 µM (inactive) | 17.5 µM (inactive) | 36.7 µM (inactive) | 2.72 µM (inactive) | 17 µM (inactive) | 26.4 µM (inactive) | 18.9 µM (inactive) | 12.2 µM (inactive) | 56 µM (inactive) | 24.2 µM (inactive) | 26.6 µM (inactive) | 36.9 µM (inactive) | 48.9 µM (inactive) | 33 µM (inactive) | 23.2 µM (inactive) | 15.5 µM (inactive) | 18.1 µM (inactive) |  |  |
| C[n+]1c2ccccc2c(N=[N+]=[N-])c2ccccc21 | 6.3 µM (inactive) | 3.33 µM (inactive) | 8.32 µM (inactive) | > 10 µM (inactive) | > 10 µM (inactive) | > 10 µM (inactive) | > 10 µM (inactive) | 4.69 µM (inactive) | 4.26 µM (inactive) | > 10 µM (inactive) | 4.26 µM (inactive) | > 10 µM (inactive) | > 10 µM (inactive) | > 10 µM (inactive) | > 10 µM (inactive) | > 10 µM (inactive) | 9.93 µM (inactive) | 7.73 µM (inactive) | > 10 µM (inactive) |  |
| CCOc1ccc(NCc2cc(OC)c(OC)c(OC)c2)cc1 |  |  | 17.5 µM (inactive) | 0.9 µM (active) | 1.11 µM (active) | 0.319 µM (active) | 0.425 µM (active) | 0.822 µM (active) | 0.614 µM (active) | 0.359 µM (active) | 40.1 µM (inactive) |  | 2.99 µM (inactive) |  | 0.578 µM (active) |  | 0.536 µM (active) | 0.481 µM (active) | 1.17 µM (inactive) |  |
| Nc1nc(O)c(Br)c(-c2cccc([N+](=O)[O-])c2)n1 | > 100 µM (inactive) | > 100 µM (inactive) | > 100 µM (inactive) | > 100 µM (inactive) | > 100 µM (inactive) | > 100 µM (inactive) | > 38.8 µM (inactive) | > 77.4 µM (inactive) | > 81.8 µM (inactive) | > 100 µM (inactive) | > 100 µM (inactive) | > 100 µM (inactive) | > 100 µM (inactive) | > 100 µM (inactive) | > 59.6 µM (inactive) | 91 µM (inactive) | > 100 µM (inactive) | > 51.9 µM (inactive) | > 61.9 µM (inactive) |  |
| O=C1OC2C(O)C(=O)OC2C1O (stereo unspecified) | > 100 µM (inactive) | > 100 µM (inactive) | > 100 µM (inactive) | > 100 µM (inactive) |  | > 100 µM (inactive) | > 100 µM (inactive) | > 100 µM (inactive) | > 100 µM (inactive) | > 100 µM (inactive) | > 100 µM (inactive) | > 100 µM (inactive) | > 100 µM (inactive) | > 100 µM (inactive) | > 100 µM (inactive) | > 100 µM (inactive) | > 100 µM (inactive) | > 100 µM (inactive) | > 100 µM (inactive) | > 100 µM (inactive) |
| CC1=CC(=O)/C(=C/NC(N)=S)C(=O)O1 |  | 28.2 µM (inactive) | > 100 µM (inactive) | > 100 µM (inactive) | > 100 µM (inactive) | > 100 µM (inactive) | > 100 µM (inactive) | 53.7 µM (inactive) | > 100 µM (inactive) | > 100 µM (inactive) | > 100 µM (inactive) | 1.05 µM (active) |  | 50.2 µM (inactive) | 92 µM (inactive) |  | > 100 µM (inactive) | > 100 µM (inactive) | 43.2 µM (inactive) | > 100 µM (inactive) |
| Cc1ccc(S(=O)(=O)NC(=O)Nc2nnc(S(N)(=O)=O)s2)cc1 | > 100 µM (inactive) | < 0.01 µM (active) | > 100 µM (inactive) | > 100 µM (inactive) | > 100 µM (inactive) | > 100 µM (inactive) | > 100 µM (inactive) | > 100 µM (inactive) | > 100 µM (inactive) | > 100 µM (inactive) | > 100 µM (inactive) | > 100 µM (inactive) |  | > 100 µM (inactive) | > 100 µM (inactive) |  | > 100 µM (inactive) | > 100 µM (inactive) | > 100 µM (inactive) |  |
| O=C(CC(=O)N1N=C(N(c2ccccc2)c2ccccc2)CC1c1ccccc1)Nc1cccc(Cl)c1 (stereo unspecified) |  | > 100 µM (inactive) | > 100 µM (inactive) | > 100 µM (inactive) | > 100 µM (inactive) | > 100 µM (inactive) | > 100 µM (inactive) | > 100 µM (inactive) | > 100 µM (inactive) | > 100 µM (inactive) | > 100 µM (inactive) | > 100 µM (inactive) | > 100 µM (inactive) | > 100 µM (inactive) | > 100 µM (inactive) | > 100 µM (inactive) | > 100 µM (inactive) | > 100 µM (inactive) | > 100 µM (inactive) |  |
